According to patent US20230126310A1 (priority 2020, published 2023):
Peptide text beside a SMILES is read from it.

Each compound was assayed on SARS-CoV-2 (assay: microbe, parasite or virus in culture). Details: Severe acute respiratory syndrome coronavirus 2, Caco-2, 48 h.
In the case of `COC(=O)C1=C(C)NC(C)=C(C(=O)OCCCN2CCC(c3ccccc3)(c3ccccc3)CC2)[C@@H]1c1cccc([N+](=O)[O-])c1` [dexniguldipine], the IC50 is reported as 35.8 µM. `C[C@@H]1CN(Cc2ccc(F)cc2)[C@@H](C)CN1C(=O)c1cc2c(C(=O)C(=O)N(C)C)cn(C)c2cc1Cl` [talmapimod] was tested, and the IC50 was 22.9 µM.

Same assay, conditions: Severe acute respiratory syndrome coronavirus 2, Caco-2, 48 h, read-out: % Inh. (% Inhibition of SARS-CoV-2)
For `Oc1cccc(-c2c3nc(c(-c4cccc(O)c4)c4ccc([nH]4)c(-c4cccc(O)c4)c4nc(c(-c5cccc(O)c5)c5ccc2[nH]5)CC4)C=C3)c1` [Temoporfin], the inhibition at 10 µM was 85.9%. For `CC(=O)Nc1cccc(-n2c(=O)n(C3CC3)c(=O)c3c(Nc4ccc(I)cc4F)n(C)c(=O)c(C)c32)c1` [Trametinib], the inhibition at 10 µM was 76.6%. In the case of `O=C(Nc1ccc(Cl)cc1)Nc1ccc(Cl)c(Cl)c1` [Triclocarban], the inhibition at 10 µM is reported as 97.2%. `CC(C)[C@]12O[C@H]1[C@@H]1O[C@]13[C@]1(O[C@H]1C[C@H]1C4=C(CC[C@@]13C)C(=O)OC4)[C@@H]2O` [Triptolide] showed an inhibition at 10 µM of 90.7%. Compound `N#CC(=C(/N)Sc1ccccc1N)/C(C#N)=C(\N)Sc1ccccc1N` [U-0126] has an inhibition at 10 µM of 79.1%. With `CCN(CC)CCO[C@H]1CC[C@@]2(C)C(=CC[C@@H]3[C@@H]2CC[C@]2(C)C(=O)CC[C@@H]32)C1` [U-18666A] the inhibition at 10 µM was 77.4%. `COc1cc2c(Nc3ccc(Br)cc3F)ncnc2cc1OCC1CCN(C)CC1` [Vandetanib (ZD6474), Vandetanib] showed an inhibition at 10 µM of 51.2%. `C=CC(N)CCC(=O)O` (stereo not drawn) [Vigabatrin] gave an inhibition at 10 µM of 52.5%. `CNC(=O)c1cccc(-c2ccc3c(N4CCOC[C@@H]4C)nc(N4CCOC[C@@H]4C)nc3n2)c1` [Vistusertib (AZD2014), Vistusertib] gave an inhibition at 10 µM of 112%. `CCn1c(=O)c(-c2cc[nH]n2)cc2c(C)nc(N)nc21` [Voxtalisib] gave an inhibition at 10 µM of 84.3%. Work on `FC(F)c1nc2ccccc2n1-c1nc(N2CCOCC2)nc(N2CCOCC2)n1` [ZSTK474] yielded an inhibition at 10 µM of 90.9%. In the case of `O=C(O)CCCCC(=O)O` [adipic-acid], the inhibition at 10 µM is reported as 55.9%. Compound `CCCCN(CC)c1nc(C)nc2c1c(C)c(C)n2-c1c(C)cc(C)cc1C` [antalarmin] has an inhibition at 10 µM of 59%. `Nc1ccccc1C(=O)O` [anthranilic-acid] gave an inhibition at 10 µM of 50%. With `CCCC1O[C@@H]2C[C@H]3[C@@H]4CCC5=CC(=O)C=C[C@]5(C)[C@H]4[C@@H](O)C[C@]3(C)[C@]2(C(=O)CO)O1` (stereo partly drawn) [budesonide] the inhibition at 10 µM was 74.4%. `COc1cc2nccc(Oc3ccc(NC(=O)C4(C(=O)Nc5ccc(F)cc5)CC4)cc3)c2cc1OC` [cabozantinib] was tested, and the inhibition at 10 µM was 57.5%. With `CC[C@@]1(O)C(=O)OCc2c1cc1n(c2=O)Cc2cc3ccccc3nc2-1` [camptothecin] the inhibition at 10 µM was 81.8%. `COc1ccc(C(Cl)=C(c2ccc(OC)cc2)c2ccc(OC)cc2)cc1` [chlorotrianisene] was tested, and the inhibition at 10 µM was 55.3%. With `O=CC=Cc1ccccc1` [cinnamaldehyde] the inhibition at 10 µM was 62.3%. `COC(=O)C1=C(C)NC(C)=C(C(=O)OCCCN2CCC(c3ccccc3)(c3ccccc3)CC2)[C@@H]1c1cccc([N+](=O)[O-])c1` [dexniguldipine] was tested, and the inhibition at 10 µM was 97.6%. `C[C@]12CC[C@H](O)C[C@H]1CC[C@@H]1[C@@H]2CC[C@]2(C)[C@@H](C3=CC(=O)OC3)CC[C@]12O` [digitoxigenin] showed an inhibition at 10 µM of 60%. With `c1ccc2c(c1)[I+]c1ccccc1-2` [diphenyleneiodonium] the inhibition at 10 µM was 55.5%. `CNCC(O)c1ccc(OC(=O)C(C)(C)C)c(OC(=O)C(C)(C)C)c1` (stereo not drawn) [dipivefrine] was tested, and the inhibition at 10 µM was 54%. For `O=C(Cn1ccnc1[N+](=O)[O-])NCCO` [etanidazole], the inhibition at 10 µM was 57.3%. Compound `Cc1cc2c(C(C)C)c(O)c(O)c(C=O)c2c(O)c1-c1c(C)cc2c(C(C)C)c(O)c(O)c(C=O)c2c1O` [gossypol] has an inhibition at 10 µM of 66.3%. In the case of `CC(O)COC[C@H]1O[C@@H]2O[C@H]3[C@H](O)[C@@H](O)[C@@H](O[C@H]4[C@H](O)[C@@H](O)[C@@H](O[C@H]5[C@H](O)[C@@H](O)[C@@H](O[C@H]6[C@H](O)[C@@H](O)[C@@H](O[C@H]7[C@H](O)[C@@H](O)[C@@H](O[C@H]8[C@H](O)[C@@H](O)[C@@H](O[C@H]1[C@H](O)[C@H]2O)O[C@@H]8COCC(C)O)O[C@@H]7COCC(C)O)O[C@@H]6COCC(C)O)O[C@@H]5COCC(C)O)O[C@@H]4COCC(C)O)O[C@@H]3COCC(C)O` (stereo partly drawn) [hydroxypropyl-beta-cyclodextrin], the inhibition at 10 µM is reported as 56.5%. `O=C1NC(c2cccc([N+](=O)[O-])c2)=CCN1c1ccccc1O` [icilin] showed an inhibition at 10 µM of 55.1%. Compound `NC(N)=NCc1cccc(I)c1` [iobenguane] has an inhibition at 10 µM of 86.9%. Work on `CC(=O)OCC(=O)[C@@]1(O)CC[C@H]2[C@@H]3CCC4=CC(=O)C=C[C@]4(C)[C@@]3(F)[C@@H](O)C[C@@]21C` [isoflupredone-acetate] yielded an inhibition at 10 µM of 80.6%. Compound `Cc1ccnc2c1CCCC2C(N)=S` (stereo not drawn) [isotiquimide] has an inhibition at 10 µM of 50%. With `NCCNC(=O)c1ccc(Cl)cn1` [lazabemide] the inhibition at 10 µM was 67.9%. Compound `CC(C)(C)NC[C@H](O)COc1cccc2c1CCCC2=O` [levobunolol] has an inhibition at 10 µM of 64.5%. For `Cc1[nH]cnc1-c1ccc(Cl)cc1` [lofemizole], the inhibition at 10 µM was 56.3%. In the case of `O=C1NC(=S)NC(=O)C1C(=O)Nc1ccccc1` [merbarone], the inhibition at 10 µM is reported as 50.4%. With `CC(=O)Oc1c(C)cc(OCC(O)CNC(C)C)c(C)c1C` (stereo not drawn) [metipranolol] the inhibition at 10 µM was 54.6%. For `COCC(=O)O[C@]1(CCN(C)CCCc2nc3ccccc3[nH]2)CCc2cc(F)ccc2[C@@H]1C(C)C` [mibefradil], the inhibition at 10 µM was 52.4%. In the case of `CCOC(=O)Nc1cc2c(c(N)n1)N=C(c1ccccc1)[C@H](C)N2` [mivobulin], the inhibition at 10 µM is reported as 65%. For `FC(F)(F)c1ccc(/C=C/c2nc(COc3ccc(CCCCn4ccnn4)cc3)co2)cc1` [mubritinib], the inhibition at 10 µM was 82.2%. With `O=C(OCC(COC(=O)c1cccnc1)(COC(=O)c1cccnc1)COC(=O)c1cccnc1)c1cccnc1` [niceritrol] the inhibition at 10 µM was 50.1%. `COC(=O)Nc1nc2ccc(C(=O)c3cccs3)cc2[nH]1` [nocodazole] gave an inhibition at 10 µM of 66.1%. `NCCC(Oc1ccc(C(F)(F)F)cc1)c1ccccc1` (stereo not drawn) [norfluoxetine] was tested, and the inhibition at 10 µM was 95%. With `N[C@H](C(=O)O)c1ccc(O)cc1` [oxfenicine] the inhibition at 10 µM was 50.7%. `O=c1[nH]c2ccccc2n1C1CCN(CCOc2ccccc2)CC1` [oxiperomide] was tested, and the inhibition at 10 µM was 77.9%. Work on `Cc1nc2ccccn2c(=O)c1CCN1CCC(C(=O)c2ccc(F)cc2)CC1` [pirenperone] yielded an inhibition at 10 µM of 64.1%. For `CC(C)C[C@H](NC(=O)[C@@H]1CCCN1)C(=O)NCC(N)=O` [prolylleucylglycinamide] (H-Pro-Leu-Gly-NH2), the inhibition at 10 µM was 70.6%. Work on `N#CN1CCCC1` [pyrrolidine-1-carbonitrile] yielded an inhibition at 10 µM of 65.9%. `O=C1NCCN1CCN1CCC(c2cn(-c3ccc(F)cc3)c3ccc(Cl)cc23)CC1` [sertindole] showed an inhibition at 10 µM of 90.3%. Work on `C/C=C/C=C/C(=O)O` [sorbic-acid] yielded an inhibition at 10 µM of 65.5%. `C[S+]([O-])CCCCN=C=S` (stereo not drawn) [sulforaphane] was tested, and the inhibition at 10 µM was 94.2%. In the case of `COc1cc(C)c2c(Oc3cccc(C(F)(F)F)c3)c(OC)cc(NC(C)CCCN)c2n1` (stereo not drawn) [tafenoquine], the inhibition at 10 µM is reported as 90%. For `C[C@@H]1CN(Cc2ccc(F)cc2)[C@@H](C)CN1C(=O)c1cc2c(C(=O)C(=O)N(C)C)cn(C)c2cc1Cl` [talmapimod], the inhibition at 10 µM was 92.3%. `COc1cccc([C@@H](C)NCCCc2ccccc2Cl)c1` [tecalcet] showed an inhibition at 10 µM of 78.1%. `NC(=O)N1C(=O)/C(=C(\O)c2cccs2)c2cc(Cl)ccc21` [tenidap] showed an inhibition at 10 µM of 75.2%. With `COc1c(O[C@@H]2O[C@H](CO)[C@@H](O)[C@H](O)[C@H]2O)cc2c(c1OC)-c1ccc(SC)c(=O)cc1[C@@H](NC(C)=O)CC2` [thiocolchicoside] the inhibition at 10 µM was 54.2%. Work on `CCCCCCCCCCCCCCCC[N+](C)(C)CCN(Cc1ccc(OC)cc1)c1ncccn1` [thonzonium bromide] yielded an inhibition at 10 µM of 76.4%. With `N#Cc1cn([C@@H]2O[C@H](CO)[C@@H](O)[C@H]2O)c2ncnc(N)c12` [toyocamycin] the inhibition at 10 µM was 68.4%. With `COc1ccc(/C=C/C(=O)O)cc1` [trans-4-Methoxycinnamic-acid] the inhibition at 10 µM was 53.6%. With `COc1ccc(N(C)c2nc(C)nc3ccccc23)cc1` [verubulin] the inhibition at 10 µM was 50.9%. `c1ccc(C(O[C@@H]2CCCN(CCc3ccc4c(c3)OCO4)C2)c2ccccc2)cc1` [zamifenacin] showed an inhibition at 10 µM of 58.3%.

Same assay, conditions: Severe acute respiratory syndrome coronavirus 2, Caco-2, 48 h, read-out: pIC50 (converted)
For `COC(=O)C1=C(C)NC(C)=C(C(=O)OCCCN2CCC(c3ccccc3)(c3ccccc3)CC2)[C@@H]1c1cccc([N+](=O)[O-])c1` [dexniguldipine], the IC50 was 35.5 µM. `C[C@@H]1CN(Cc2ccc(F)cc2)[C@@H](C)CN1C(=O)c1cc2c(C(=O)C(=O)N(C)C)cn(C)c2cc1Cl` [talmapimod] was tested, and the IC50 was 22.9 µM.

What follows are compounds tested on SARS-CoV-2 (assay: not given). Details: 10 µM.
`CC(C)(C)n1nc(-c2cccc3ccccc23)c2c(N)ncnc21` [1-naphthyl-PP1] was tested, and the “% Inh. (% Inhibition of SARS-CoV-2)” value was 94.1%. For `CC(C)C(C(=O)Nc1nccs1)c1ccc(Cl)cc1` (stereo not drawn) [4-CMTB], the “% Inh. (% Inhibition of SARS-CoV-2)” value was 87.1%. For `O=C(NC1CCN(Cc2ccccc2)CC1)c1ccc(I)cc1` [4-IBP], the “% Inh. (% Inhibition of SARS-CoV-2)” value was 89.9%. With `c1ccc(CCCCN2CCC(c3ccccc3)CC2)cc1` [4-PPBP] the “% Inh. (% Inhibition of SARS-CoV-2)” value was 63.1%. With `Cc1cc(=O)oc2c(C=O)c(O)ccc12` [4-mu-8C] the “% Inh. (% Inhibition of SARS-CoV-2)” value was 106.2%. In the case of `COc1ccc2nc3c(c(N)c2c1)CCCC3` [7-methoxytacrine], the “% Inh. (% Inhibition of SARS-CoV-2)” value is reported as 58.7%. With `CC[C@@]1(O)C(=O)OCc2c1cc1n(c2=O)Cc2cc3c(N)cccc3nc2-1` [9-aminocamptothecin] the “% Inh. (% Inhibition of SARS-CoV-2)” value was 80.3%. `Cc1nc(NC(=O)N2CCC[C@H]2C(N)=O)sc1-c1csc(C(C)(C)C)n1` [A66] was tested, and the “% Inh. (% Inhibition of SARS-CoV-2)” value was 54.4%. For `Cc1[nH]nc2ccc(-c3cncc(OC[C@@H](N)Cc4ccccc4)c3)cc12` [A-674563], the “% Inh. (% Inhibition of SARS-CoV-2)” value was 53.3%. With `O=C(Nc1ccc(S(=O)(=O)C(F)(F)F)cc1)C1=CCN(c2ncccc2C(F)(F)F)CC1` [A-784168] the “% Inh. (% Inhibition of SARS-CoV-2)” value was 60.3%. `CNC(=O)c1cccc(NC(=O)N2CCC(Oc3ccccc3Cl)CC2)c1` [A-939572] was tested, and the “% Inh. (% Inhibition of SARS-CoV-2)” value was 78.8%. `CCC(C)C1O[C@]2(C=C[C@@H]1C)C[C@@H]1CC(C/C=C(\C)[C@@H](OC3C[C@H](OC)[C@@H](OC4C[C@H](OC)[C@@H](O)[C@H](C)O4)[C@H](C)O3)[C@@H](C)/C=C/C=C3\COC4[C@H](O)C(C)=CC(C(=O)O1)[C@]34O)O2` (stereo partly drawn) [ABAMECTIN (avermectin B1a)] was tested, and the “% Inh. (% Inhibition of SARS-CoV-2)” value was 108.9%. With `CCCCCCCCc1ccc(-c2ccc(C(=O)O)cc2)cc1` [AC-55649] the “% Inh. (% Inhibition of SARS-CoV-2)” value was 63.1%.

Same assay, conditions: 10 µM; HYDROCHLORIDE
In the case of `C[n+]1c2cc(N)ccc2cc2ccc(N)cc21.[Cl-]` [ACRIFLAVINIUM HYDROCHLORIDE], the “% Inh. (% Inhibition of SARS-CoV-2)” value is reported as 99.5%.

Same assay, conditions: 10 µM; listed as Acriflavine hydrochloride, HYDROCHLORIDE
`C[n+]1c2cc(N)ccc2cc2ccc(N)cc21.[Cl-]` [ACRIFLAVINIUM HYDROCHLORIDE] was tested, and the “% Inh. (% Inhibition of SARS-CoV-2)” value was 69.4%.
